Each structure is given as a SMILES string. pEC50: −log10 of the molar value.

The results in this text go back to BindingDB's records for doi:10.7270/Q2TX3CSC (Vanderbilt Screening Center for GPCRs, Ion Channels and …, 2009).

One assay addresses T1, Solute carrier family 12 member 5 (Homo sapiens, UniProt Q9H2X9).
T1 sequence (Q9H2X9 whole entry): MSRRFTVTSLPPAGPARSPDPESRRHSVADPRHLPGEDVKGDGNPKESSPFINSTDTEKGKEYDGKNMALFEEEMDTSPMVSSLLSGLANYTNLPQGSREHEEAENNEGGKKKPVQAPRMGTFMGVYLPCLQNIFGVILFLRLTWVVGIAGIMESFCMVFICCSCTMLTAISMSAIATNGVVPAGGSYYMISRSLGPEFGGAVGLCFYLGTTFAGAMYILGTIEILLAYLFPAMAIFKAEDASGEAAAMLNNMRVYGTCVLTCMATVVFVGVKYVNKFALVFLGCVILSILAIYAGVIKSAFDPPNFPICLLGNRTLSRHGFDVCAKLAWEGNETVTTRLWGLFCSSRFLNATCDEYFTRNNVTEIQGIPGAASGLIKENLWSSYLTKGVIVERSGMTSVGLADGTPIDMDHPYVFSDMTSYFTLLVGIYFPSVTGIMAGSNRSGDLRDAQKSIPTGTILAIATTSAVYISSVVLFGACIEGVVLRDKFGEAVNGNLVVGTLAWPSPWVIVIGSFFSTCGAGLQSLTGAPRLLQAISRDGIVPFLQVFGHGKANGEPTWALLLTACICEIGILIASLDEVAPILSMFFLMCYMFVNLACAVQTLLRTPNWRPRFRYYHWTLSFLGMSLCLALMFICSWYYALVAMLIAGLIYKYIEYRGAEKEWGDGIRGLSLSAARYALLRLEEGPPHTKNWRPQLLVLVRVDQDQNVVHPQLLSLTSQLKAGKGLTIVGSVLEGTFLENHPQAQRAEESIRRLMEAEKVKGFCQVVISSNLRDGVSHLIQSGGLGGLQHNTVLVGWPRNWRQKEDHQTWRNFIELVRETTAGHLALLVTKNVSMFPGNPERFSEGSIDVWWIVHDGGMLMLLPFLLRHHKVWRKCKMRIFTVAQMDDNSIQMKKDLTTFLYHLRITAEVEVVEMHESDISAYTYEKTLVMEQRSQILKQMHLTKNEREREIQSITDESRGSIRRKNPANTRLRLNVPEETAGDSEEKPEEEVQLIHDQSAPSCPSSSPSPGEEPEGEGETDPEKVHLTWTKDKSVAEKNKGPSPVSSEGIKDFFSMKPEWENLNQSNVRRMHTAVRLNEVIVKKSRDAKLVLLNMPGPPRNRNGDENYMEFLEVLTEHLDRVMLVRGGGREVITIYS
Description: KCC2 modulator potency by thallium flux, dose response, cell-based, HEK293 KCC2, FluoZin-2 fluorescence (AID 1736).
Conditions: not given
A word on the pEC50: it is the EC50 on a negative log10 scale, so that one unit is a factor of ten. High values mean a small EC50, low ones a large EC50. Turning to `CCOc1cc(S(=O)(=O)NCc2ccccc2)ccc1F` [3-ethoxy-4-fluoranyl-N-(phenylmethyl)benzenesulfonamide], the negative-log EC50 (pEC50) is 5.23.

The molecule `CCC(c1nnc(SCc2nc3ccccc3s2)n1Cc1ccccc1)N(C)C` (centres undefined) [1-[5-(1,3-benzothiazol-2-ylmethylsulfanyl)-4-(phenylmethyl)-1,2,4-triazol-3-yl]-N,N-dimethyl-propan-1-amine] gave a pEC50 of 4.83. This pEC50 lies 0.40 log units lower than the previous one.

`Sc1nnc(CCc2ccc(Cl)cc2)o1` [5-[2-(4-chlorophenyl)ethyl]-1,3,4-oxadiazole-2-thiol] showed a pEC50 of 6.00. Against the preceding molecule, the pEC50 is 1.17 log units higher.

`Cc1ccc(C2=CSC3=NNC4(CCCCC4)NN23)cc1` [SMR000306481] showed a pEC50 of 5.60.

On to `Cc1ccccc1-c1nc(CS(=O)(=O)CC(=O)NCc2ccccc2)c(C)o1` [2-[[5-methyl-2-(2-methylphenyl)-1,3-oxazol-4-yl]methylsulfonyl]-N-(phenylmethyl)ethanamide], for which the pEC50 was 4.93. This pEC50 lies 0.67 log units lower than the previous one.

In turn, `O=C(NC(=S)Nc1nc(-c2cccc([N+](=O)[O-])c2)cs1)c1ccccc1Cl` [2-chloranyl-N-[[4-(3-nitrophenyl)-1,3-thiazol-2-yl]carbamothioyl]benzamide] showed a pEC50 of 5.02.

The molecule `COc1ccc(-c2nnc(S/C(=C/c3ccc(Cl)cc3)C(=O)O)o2)cc1` [(E)-3-(4-chlorophenyl)-2-[[5-(4-methoxyphenyl)-1,3,4-oxadiazol-2-yl]sulfanyl]prop-2-enoic acid] had a pEC50 of 6.54.

With `O=C(O)c1cc([N+](=O)[O-])ccc1NCc1ccccc1` [2-(benzylamino)-5-nitro-benzoic acid], the pEC50 is 5.38. This pEC50 is 1.16 log units lower than that of the molecule before.

The molecule `Cc1cc(C(=O)COC(=O)CCc2nc3ccccc3s2)c(C)n1C` [3-(1,3-benzothiazol-2-yl)propanoic acid [2-oxo-2-(1,2,5-trimethyl-3-pyrrolyl)ethyl] ester] showed a negative-log EC50 (pEC50) of 4.01.

In turn, `O=C(CSc1nnc(Cc2ccccc2)o1)c1ccc(F)cc1` [1-(4-fluorophenyl)-2-[[5-(phenylmethyl)-1,3,4-oxadiazol-2-yl]sulfanyl]ethanone] showed a pEC50 of 5.62.

Regarding `O=C(NN1C(=O)/C(=C/c2nc3ccccc3[nH]2)SC1=S)c1ccccc1` [N-[(5Z)-5-(1H-benzimidazol-2-ylmethylidene)-4-oxidanylidene-2-sulfanylidene-1,3-thiazolidin-3-yl]benzamide], the pEC50 was 6.42.

`CNc1ccc(/C=C(\CCC(=O)O)c2nc3ccccc3s2)cc1[N+](=O)[O-]` [MLS000394200] gave a pEC50 of 4.61.

Molecule `COCCNS(=O)(=O)c1ccc(-c2ccc(Cl)cc2)cc1` [4'-chloro-N-(2-methoxyethyl)-4-biphenylsulfonamide] showed a pEC50 of 5.22.

`Cc1ccc2[nH]c3c(N4CCN(Cc5ccccc5)CC4)ncnc3c2c1` [8-methyl-4-[4-(phenylmethyl)-1-piperazinyl]-5H-pyrimido[5,4-b]indole] showed a pEC50 of 5.53.

In turn, `Cc1c(C(=O)NCCSCc2ccc(F)cc2)cnn1-c1ccc(Cl)cc1` [1-(4-chlorophenyl)-N-[2-[(4-fluorobenzyl)thio]ethyl]-5-methyl-pyrazole-4-carboxamide] had a pEC50 of 5.21.

`Sc1nnc(Cc2cccc3ccccc23)o1` [5-(1-naphthalenylmethyl)-3H-1,3,4-oxadiazole-2-thione] showed a pEC50 of 6.52.

For the molecule `CNc1ccc2oc(C[C@H]3O[C@@]4(CC[C@H]3C)O[C@H]([C@H](C)C(=O)c3ccc[nH]3)[C@H](C)C[C@H]4C)nc2c1C(=O)O` [MLS001056783], the pEC50 is 4.95. Compared with the last molecule, the pEC50 is 1.57 log units lower.

The molecule `CCOc1ccc(C(CC(=O)O)NC(=O)C(Sc2ccccc2)c2ccccc2)cc1` (centres undefined) [3-(4-ethoxyphenyl)-3-[(2-phenyl-2-phenylsulfanyl-ethanoyl)amino]propanoic acid] had a negative-log EC50 (pEC50) of 2.39. This pEC50 lies 2.56 log units lower than the previous one.

`O=C(NCCc1cn2ccccc2n1)c1cc(COc2c(F)cccc2F)on1` [5-[(2,6-difluorophenoxy)methyl]-N-(2-imidazo[1,2-a]pyridin-2-ylethyl)-1,2-oxazole-3-carboxamide] had a pEC50 of 4.10.

Turning to `COc1ccc(C(=O)N2CCCC(c3ccccc3)C2)cc1` (centres undefined) [(4-methoxyphenyl)-(3-phenyl-1-piperidinyl)methanone], the pEC50 is 5.14.

As for `O=C(Cn1cnc2c(nnn2Cc2ccc(F)cc2)c1=O)N1CCN(c2ccccc2)CC1` [3-(4-fluorobenzyl)-6-[2-keto-2-(4-phenylpiperazino)ethyl]triazolo[4,5-d]pyrimidin-7-one], the pEC50 was 4.70.

For the molecule `Sc1nnc(C2(c3ccccc3)CCCC2)o1` [5-(1-phenylcyclopentyl)-3H-1,3,4-oxadiazole-2-thione], the pEC50 is 5.48.

The molecule `Cc1[nH]c2ccccc2c1Cc1nnc(S)o1` had a pEC50 of 5.49.

In turn, `S=C(NN=Cc1cccc2ccccc12)Nc1cccc(Cl)c1` [1-(3-chlorophenyl)-3-(1-naphthalenylmethylideneamino)thiourea] showed a pEC50 of 4.96.

The molecule `O=C(NCC1CCCN(C(=O)c2cccnc2)C1)c1ccc(-c2ccccc2)cc1` (centres undefined) [4-phenyl-N-[(1-pyridin-3-ylcarbonylpiperidin-3-yl)methyl]benzamide] showed a pEC50 of 5.55. This pEC50 lies 0.59 log units higher than the previous one.

`CC1Cc2ccccc2N1C(=O)CSc1nnnn1Cc1ccccc1` (centres undefined) [1-(2-methyl-2,3-dihydroindol-1-yl)-2-[[1-(phenylmethyl)-1,2,3,4-tetrazol-5-yl]sulfanyl]ethanone] showed a pEC50 of 4.87.

Molecule `N#CC(C(=O)COc1ccccc1)c1nc2ccccc2s1` (centres undefined) [(2Z)-2-(3H-1,3-benzothiazol-2-ylidene)-3-keto-4-phenoxy-butyronitrile] had a pEC50 of 5.07.

Take `O=C(c1cc2c(s1)-c1ccccc1OC2)N1CCC2(CC1)OCCO2` [1,4-dioxa-8-azaspiro[4.5]decan-8-yl(4H-thieno[3,2-c][1]benzopyran-2-yl)methanone]: the pEC50 was 4.60.

`COc1ccccc1NC(=S)NNC1=c2cc(Br)ccc2=NC1=O` [MLS000778253]: the negative logarithm of the EC50 (pEC50) was 6.15.

Take `O=C(NN=Cc1ccccn1)c1ccccc1O` [2-oxidanyl-N-(pyridin-2-ylmethylideneamino)benzamide]: the pEC50 was 4.53.

Regarding `COC(=O)c1sccc1NC(=S)OC` [3-(methoxycarbothioylamino)thiophene-2-carboxylic acid methyl ester], the pEC50 is 5.75.

`CC1Cc2ccccc2N1C(=O)CSc1nnc(CNc2ccccc2)o1` (centres undefined) [1-(2-Methyl-2,3-dihydro-indol-1-yl)-2-(5-phenylaminomethyl-[1,3,4]oxadiazol-2-ylsulfanyl)-ethanone] showed a pEC50 of 6.03.

In turn, `O=C(Cc1csc(-c2ccccc2)n1)NCc1ccc(F)cc1` [MLS000336311] showed a negative logarithm of the EC50 (pEC50) of 5.44. Compared with the last molecule, the pEC50 is 0.59 log units lower.

On to `O=C(c1ccccc1SCc1ccc(F)cc1)N1CCOCC1` [MLS000712999], for which the pEC50 is 5.19.

`Cc1ccc(C(=O)Nc2nc(=O)n(C(=O)c3ccccc3Cl)s2)cc1` [MLS000540480] showed a pEC50 of 5.43.

Consider `Sc1nnc(CNc2cccc(Cl)c2)o1` [5-[(3-chloroanilino)methyl]-3H-1,3,4-oxadiazole-2-thione], for which the negative-log EC50 (pEC50) is 5.76.

On to `O=C(NCCc1csc(-c2ccccc2)n1)c1cccs1` [MLS000102716], for which the pEC50 is 3.76.

`Cc1ccc2oc(-c3ccc(C)c(NC(=S)NC(=O)c4cccs4)c3)nc2c1` [1-[2-Methyl-5-(5-methyl-benzooxazol-2-yl)-phenyl]-3-(thiophene-2-carbonyl)-thiourea]: the pEC50 was 5.69.

Still in this assay, the particulars now being: inactive by the depositor's call.
With `CC(C)Oc1ccccc1OCCCOc1cccc2cccnc12` [8-[3-(2-isopropoxyphenoxy)propoxy]quinoline], the pEC50 is 4.98.

Molecule `Fc1ccccc1CSc1nncn1NC/C=C/c1ccccc1` [3-[(2-fluorophenyl)methylsulfanyl]-N-[(E)-3-phenylprop-2-enyl]-1,2,4-triazol-4-amine] showed a pEC50 of 7.25. Compared with the last molecule, the pEC50 is 2.27 log units higher.

Regarding `Cc1ccc(-c2nn(Cc3ccccc3)cc2/C=C/C(=O)O)cc1` [(E)-3-[1-benzyl-3-(4-methylphenyl)pyrazol-4-yl]prop-2-enoic acid], the pEC50 is 4.92.

In the case of `Cc1cccc(N2CCN(C(=O)CCCn3c(=S)[nH]c4cc5c(cc4c3=O)OCO5)CC2)c1C` [MLS000095366], the pEC50 is 4.65.

Regarding `O=C(NCCCn1ncc2ccccc21)c1cc(COc2c(F)cccc2F)on1` [5-[(2,6-difluorophenoxy)methyl]-N-(3-indazol-1-ylpropyl)-1,2-oxazole-3-carboxamide], the negative-log EC50 (pEC50) is 4.73. This pEC50 and that of the molecule before are within 0.2 log units of each other.

The molecule `CCOc1ccccc1CNC(=O)C1CCN(c2nc3ccccc3o2)CC1` [1-(1,3-benzoxazol-2-yl)-N-(2-ethoxybenzyl)isonipecotamide] had a pEC50 of 4.02.
